ChEMBL document CHEMBL4265876, “Natural Products with Heteroatom-Rich Ring Systems” (J Nat Prod, 2017)
Values after ≈ are worked out from the molar mass of the structure shown.

How the values were obtained:
HT-29 = assay: Cytotoxicity against human HT-29 cells; type: functional, cell-based
PC-3 = assay: Cytotoxicity against human PC3 cells; type: functional, cell-based
MDA-MB-231 [1] = assay: Cytotoxicity against human MDA231 cells; type: functional, cell-based
UMUC3 = assay: Cytotoxicity against human UM-UC-3 cells; type: functional, cell-based
MIA PaCa-2 = assay: Cytotoxicity against human MIAPaCa2 cells; type: functional, cell-based
Candida albicans = assay: Antifungal activity against Candida albicans assessed as inhibition zone at 2 ug/disk; type: functional; conditions: read-out: IZ
HCT-116 = assay: Cytotoxicity against human HCT116 cells; type: functional, cell-based
MCF7 = assay: Cytotoxicity against human MCF7 cells; type: functional, cell-based
V79 = assay: Cytotoxicity against chinese hamster V79 cells; type: cell-based; conditions: Cricetulus griseus
HL-60 = assay: Cytotoxicity against human HL60 cells; type: functional, cell-based
MDA-MB-468 = assay: Cytotoxicity against human MDA-MB-468 cells; type: functional, cell-based
Ruegeria atlantica = assay: […] activity against Ruegeria atlantica assessed as inhibition zone at 50 ug/disk; type: functional; conditions: read-out: IZ
DLD-1 = assay: Cytotoxicity against human DLD1 cells; type: functional, cell-based
MDA-MB-231 [2] = assay: Cytotoxicity against human MDA-MB-231 cells; type: functional, cell-based
ACHN = assay: Cytotoxicity against human ACHN cells; type: functional, cell-based
NCI-H460 = assay: Cytotoxicity against human NCI-H460 cells; type: functional, cell-based

Compound: COc1cc(CCN)c2c(c1OC)SS[S+]2[O-] (stereo unspecified)
- IC50 (HT-29): 2.4 to 11.9 nM
- IC50 (PC-3): 2.4 to 11.9 nM
- IC50 (MDA-MB-231 [1]): 2.4 to 11.9 nM
- IC50 (UMUC3): 2.4 to 11.9 nM
- IC50 (MIA PaCa-2): 2.4 to 11.9 nM

Compound: COc1cc(CCN)c2c(c1OC)SSSSS2 [VARACIN]
- IC50 (PC-3): 0.6 nM
- IC50 (MIA PaCa-2): 1.8 nM
- zone of inhibition at 2 µg/disc (Candida albicans): 14 mm
- IC90 (HCT-116): 0.05 µg/mL (≈ 0.147 µM)
- IC50 (MCF7): 1.69 nM

Compound: COc1c(SC)c(CCN(C)C)c2sc3c(CCN(C)C)c(SC)c(OC)c(OC)c3ssc2c1OC [LISSOCLINOTOXIN F]
- IC50 (V79): 280 nM
- IC50 (HL-60): 230 nM
- IC50 (MDA-MB-468): 4.2 µg/mL (≈ 6.97 µM)

Compound: COc1c(SC)c(CCN(C)C)c2sc3c(OC)c(OC)c(SC)c(CCN(C)C)c3ssc2c1OC [LISSOCLIBADIN 2]
- IC50 (HCT-116): 140 nM
- IC50 (V79): 210 nM
- IC50 (HL-60): 80 nM
- zone of inhibition at 50 µg/disc (Ruegeria atlantica): 28.2 mm
- IC50 (DLD-1): 100 nM
- IC50 (MDA-MB-231 [2]): 200 nM
- IC50 (ACHN): 240 nM
- IC50 (NCI-H460): 270 nM
